Where two headings read alike, the source gives them in different places.
Experiments:
MDA-MB-231 cells [1] = experiment: crystal violet assay, cellular viability; format: cell-based, human; settings: Homo sapiens, read-out: IC50 cellular viability
Procedure: (§1) Compound 1 and compound 2 were tested in their efficacy to kill malignant MCF7 cancer cells. Briefly, 10.000 cells per well were seeded in a 96-well plat on one day and the next day selected compounds were added and incubated with the cells for 48 hrs. The cells were then fixed with 4% paraformaldehyde, stained with 0.05% crystal violet, washed with PBS, and solubilized in 1% SDS. The absorbance of the plate at 595 nm was then measured, quantifying the number of viable cells.
(§2) A number of compounds of the present invention were tested for cytotoxicity towards at least some of human breast cancer cell lines (MCF7, MDA-MB-231), human fibroblast (BJ) and murine triple negative breast cancer cell line 4T1 (Table 2).

MCF7 cells [2] = experiment: crystal violet assay, cellular viability; format: cell-based, human; settings: for IC50: MCF7, 48 h, read-out: IC50 cellular viability
Procedure: as §1, §2

[3] = tested on: murine triple negative breast cancer cell line 4T1; experiment: crystal violet assay, cellular viability; format: cell-based; settings: Mus musculus, 4T1, 48 hours
Procedure: as §1, §2

MCF7 cells [4] = experiment: AnnexinV/PI cell death assay; format: cell-based, human
Procedure: (§3) Briefly, cells were seeded in 12-well plate at 100,000 per well, incubated with the selected compounds for 48 hours, then floating cells were spun, adherent cells trypsinized and spun as well followed by the staining with AnnexinV-FITC and PI probes. Cells were then washed with PBS and measured via Fluorescence Activated Sorter.

MDA-MB-231 cells [5] = experiment: AnnexinV/PI cell death assay; format: cell-based, human; settings: MDA-MB-231, 200 μM, 48 hrs
Procedure: as §3, with “To confirm such findings by an independent method, cell death-inducing potency (cytotoxic efficacy) of DFO and compound 2 have been tested via annexin V/PI staining commonly used as a measure of apoptotic/necrotic cell death. Briefly,” for “Briefly,”

T47D cells [6] = experiment: AnnexinV/PI cell death assay; format: cell-based; settings: 200 μM, 48 hrs
Procedure: as §3, with “To confirm such findings by an independent method, cell death-inducing potency (cytotoxic efficacy) of DFO and compound 2 have been tested via annexin V/PI staining commonly used as a measure of apoptotic/necrotic cell death. Briefly,” for “Briefly,”
Since compound 2 is an iron chelator, we have evaluated the effect of pretreating compound 2 with iron. at a 1:1 ratio by using the Annexin V/PI staining as in example 7.

[7] = tested on: non malignant cells (BJ), human fibroblast; experiment: crystal violet assay, cellular viability; format: cell-based
Procedure: as §1, §2

non malignant cells (BJ) = experiment: AnnexinV/PI cell death assay; format: cell-based
Procedure: as §3, with “To confirm such findings by an independent method, cell death-inducing potency (cytotoxic efficacy) of DFO and compound 2 have been tested via annexin V/PI staining commonly used as a measure of apoptotic/necrotic cell death. Briefly,” for “Briefly,”
We have then analyzed the percentage of death cells by the annexinV/PI staining as described in example 7. We have observed a significant potentiation in cell death induction when gallium was combined with compound 2 (Table 14)

BT549 cells = experiment: AnnexinV/PI cell death assay; format: cell-based; settings: BT549, 200 μM, 48 hrs
Procedure: as §3, with “To confirm such findings by an independent method, cell death-inducing potency (cytotoxic efficacy) of DFO and compound 2 have been tested via annexin V/PI staining commonly used as a measure of apoptotic/necrotic cell death. Briefly,” for “Briefly,”

BT474 cells = experiment: AnnexinV/PI cell death assay; format: cell-based; settings: BT474, 200 μM, 48 hrs
Procedure: as §3, with “To confirm such findings by an independent method, cell death-inducing potency (cytotoxic efficacy) of DFO and compound 2 have been tested via annexin V/PI staining commonly used as a measure of apoptotic/necrotic cell death. Briefly,” for “Briefly,”

MCF7 cells [8] = experiment: cellular proliferation in real time, Xcelligence technology; format: cell-based
Procedure: The ability of compound 2 to affect the proliferation and cell death induction in real time was monitored by the Xcelligence technology that detects changes in electrical impedance related to the cell number. In brief, special 16-well e-plates containing gold electrodes were filled with medium, blank values were recorded, and then 5.000 cells per well were seeded in the plate and let to attach for 2 hours, followed by the addition of compounds. The electrical impedance was then monitored over time in real-time every 15 minutes. In this case a line is drawn that reflects the cell number over time. […] We have seen a clear inhibition of proliferation with compound 2 at 1 μM, complete block of proliferation at 2 μM concentration, while the cytotoxic effect is seen at 5 μM (Table 9).

T47D cells [9] = experiment: crystal violet assay, cellular viability; format: cell-based; settings: 48 hours
[10] = MDA-MB-231, 48 hours, crystal violet

Molecule `CC(=O)N(O)CCCCCNC(=O)CCC(=O)N(O)CCCCCNC(=O)CCC(=O)N(O)CCCCCN(CCCCCCCCCC[P+](C1CCCCC1)(C1CCCCC1)C1CCCCC1)CCCCCCCCCC[P+](C1CCCCC1)(C1CCCCC1)C1CCCCC1` [Compound 4, Tricyclohexyl(3,14,25-trihydroxy-2,10,13,21,24-pentaoxo-31-(10-(tricyclohexylphosphonio)decyl)-3,9,14,20,25,31-hexaazahentetracontan-31-ium-41-yl) phosphonium trichloride] has an IC50 (MDA-MB-231 cells [1]; MDA-MB-231, 48 h) of 1.3 µM, an IC50 (MCF7 cells [2]; Homo sapiens, crystal violet) of 0.7 µM and an IC50 [3] of 1.8 µM.

Molecule `CCCC[P+](CCCC)(CCCC)CCCCCCCCCCN(CCCCCCCCCC[P+](CCCC)(CCCC)CCCC)CCCCCN(O)C(=O)CCC(=O)NCCCCCN(O)C(=O)CCC(=O)NCCCCCN(O)C(C)=O` [Compound 6, 42,42-dibutyl-3,14,25-trihydroxy-2,10,13,21,24-pentaoxo-31-(10-(tributylphosphonio)decyl)-3,9,14,20,25,31-hexaaza-42-phosphahexatetracontane-31,42-diium trichloride] has an IC50 (MDA-MB-231 cells [1]; [10]) of 2.8 µM, an IC50 (MCF7 cells [2]; Homo sapiens, crystal violet) of 3 µM and an IC50 [3] of 4.9 µM.

In the case of `CC(=O)N(O)CCCCCNC(=O)CCC(=O)N(O)CCCCCNC(=O)CCC(=O)N(O)CCCCCN(CCCCCCCCCCCC[P+](c1ccccc1)(c1ccccc1)c1ccccc1)CCCCCCCCCCCC[P+](c1ccccc1)(c1ccccc1)c1ccccc1` [Compound 8, Triphenyl(3,14,25-trihydroxy-2,10,13,21,24-pentaoxo-31-(12-(triphenylphosphonio)dodecyl)-3,9,14,20,25,31-hexaazatritetracontan-31-ium-43-yl)phosphonium trichloride], the IC50 (MDA-MB-231 cells [1]; MDA-MB-231, 48 h) is reported as 0.6 µM, the IC50 (MCF7 cells [2]; Homo sapiens, crystal violet) is reported as 0.5 µM and the IC50 [3] is reported as 1.2 µM.

`CC(=O)N(O)CCCCCNC(=O)CCC(=O)N(O)CCCCCNC(=O)CCC(=O)N(O)CCCCCN(CCCCCCCCCC[P+](Cc1ccccc1)(Cc1ccccc1)Cc1ccccc1)CCCCCCCCCC[P+](Cc1ccccc1)(Cc1ccccc1)Cc1ccccc1` [Compound 9, 2,2-dibenzyl-19,30,41-trihydroxy-20,23,31,34,42-pentaoxo-1-phenyl-13410-(tribenzylphosphonio)decyl)-13,19,24,30,35,41-hexaaza-2-phosphatritetracontane-2,13-diium trichloride] showed an IC50 (MDA-MB-231 cells [1]; MDA-MB-231, 48 h) of 0.8 µM, an IC50 (MCF7 cells [2]; Homo sapiens, crystal violet) of 0.9 µM and an IC50 [3] of 1.8 µM.

`CCCCCCCC[P+](CCCCCCCC)(CCCCCCCC)CCCCCCCCCCN(CCCCCCCCCC[P+](CCCCCCCC)(CCCCCCCC)CCCCCCCC)CCCCCN(O)C(=O)CCC(=O)NCCCCCN(O)C(=O)CCC(=O)NCCCCCN(O)C(C)=O` [Compound 10, 3,14,25-trihydroxy-42,42-dioctyl-2,10,13,21,24-pentaoxo-31-(10-(trioctylphosphonio)decyl)-3,9,14,20,25,31-hexaaza-42-phosphapentacontane-31,42-diium trichloride] gave an IC50 (MDA-MB-231 cells [1]; [10]) of 0.7 µM, an IC50 (MCF7 cells [2]; Homo sapiens, crystal violet) of 0.8 µM and an IC50 [3] of 1.3 µM.

`CC(=O)N(O)CCCCCNC(=O)CCC(=O)N(O)CCCCCNC(=O)CCC(=O)N(O)CCCCCN` [DFO, deferoxamine] was tested, and the “mean percentage of dead cells (AnnexinV/PI)” value (“mean percentage of dead cells” for short) (MCF7 cells [4]; MCF7, 200 μM, 48 hrs) was 45.0%, the “mean percentage of dead cells” value (MDA-MB-231 cells [5]) was 22.4% and the “mean percentage of dead cells” value (T47D cells [6]) was 14.1 (7.2) %. For the same molecule, the “Selectivity index (IC50 non-malignant/IC50 malignant)” value (MCF7 cells [2]; BJ vs MCF7, 48 hours) was 1.72, the viability at 2 µM (MCF7 cells [2]; Homo sapiens, MCF7, 2 μM, 48 hrs, crystal violet, read-out: mean percentage of viable cells compared to non-treated controls) was 92% and the viability at 5 µM (MCF7 cells [2]; Homo sapiens, MCF7, 5 μM, 48 hrs, crystal violet, read-out: mean percentage of viable cells compared to non-treated controls) was 95.9%. The viability at 10 µM (MCF7 cells [2]; Homo sapiens, MCF7, 10 μM, 48 hrs, crystal violet, read-out: mean percentage of viable cells compared to non-treated controls) was 92.2%, the “Selectivity index (IC50 non-malignant/IC50 malignant)” value ([7]; BJ vs BJ (reference)) was 1 and the IC50 ([7]; Homo sapiens, Fibroblast, BJ non malignant, 48 hours, crystal violet) was 219 µM. For the same molecule, the “mean percentage of dead cells” value (non malignant cells (BJ); 200 μM, 48 hrs) was 10.5%, the “mean percentage of dead cells” value (BT549 cells) was 18.3% and the “mean percentage of dead cells” value (BT474 cells) was 19.2%. For the same molecule, the “slope of the line (relative number of cells in relation to time)” value (MCF7 cells [8]; MCF7, 0-15 h, 1 μM) was 1.02, the “slope of the line (relative number of cells in relation to time)” value (MCF7 cells [8]; MCF7, 0-15 h, 2 μM) was 1.12 and the “slope of the line (relative number of cells in relation to time)” value (MCF7 cells [8]; MCF7, 0-15 h, 5 μM) was 1.01. The “slope of the line (relative number of cells in relation to time)” value (MCF7 cells [8]; MCF7, 0-36 h, 1 μM) was 1.31, the “slope of the line (relative number of cells in relation to time)” value (MCF7 cells [8]; MCF7, 0-36 h, 2 μM) was 1.53 and the “slope of the line (relative number of cells in relation to time)” value (MCF7 cells [8]; MCF7, 0-36 h, 5 μM) was 0.50. For the same molecule, the “Selectivity index (IC50 non-malignant/IC50 malignant)” value (T47D cells [9]; BJ vs T47D) was 0.80 and the IC50 (T47D cells [9]; Homo sapiens, T47D, crystal violet, read-out: IC50 cellular viability) was 272 µM.

With `[Cl][Ga]([Cl])[Cl]` [GaCl3, gallium chloride, reference compound] the “percentage of death cells by annexinV/PI staining” value (MCF7 cells [4]; MCF7, ratio Ga:compound 2 1:0, 5 μM gallium salt alone) was 5.9 (2.5) and the “percentage of death cells by annexinV/PI staining” value (non malignant cells (BJ); ratio Ga:compound 2 1:0, 5 μM gallium salt alone) was 2.4 (0.1).
